Measurements published in patent US6436630B1, “Method for testing the toxicity of chemical substances using gastropods” (priority 1998, dated 2002).
Where two headings read alike, the source gives them in different places.

Experiments:
[1] = system: foot mucosa of slugs of species Arion; assay type: in vivo; settings: Arion; for % MP, mucus production: 1% w/v (HPβCD 5% w/v) in PBS, 15 min; for ALP released into PBS / LDH released into PBS / Protein released into PBS: 1% w/v (HPβCD 5% w/v), total mean of 7 samples/day per slug
[2] = system: foot mucosa of slugs of species Limax; assay type: in vivo; settings: Limax; for % MP, mucus production as % of the body weight at the start of the day before the treatment: 1% w/v (HPβCD 5% w/v) in PBS, 15 min; for ALP released into PBS / LDH released into PBS / Protein released into PBS: 1% w/v (HPβCD 5% w/v), total mean of 7 samples/day per slug
Protocol: Slugs of the species Limax are terrestial slugs have lungs and also a small internal shell. As test substances hydroxypropyl-β-cyclodextrin (HPβCD), sodium tauro-24,25-dihdrofiisidate (STDHF) and sodium deoxycholate were selected. Benzalkonium chloride (1% w/v), HPβCD (5% w/v), STDHF (1% w/v) and SDC (1% w/v) were prepared in phosphate buffered saline (PBS, pH 7.4).
The enzymes lactate dehydrogenase (LDH) and alkaline phosphatase (ALP) and total protein released into the PBS were determined. The change in body weight and mucus production caused by the treatment were examined.

CC(=O)OC1CC2(C)C(CC(O)C3C4(C)CCC(O)C(C)C4CCC32C)C1=C(CCCC(C)C)C(=O)NCCS(=O)(=O)O (stereo not drawn) [STDHF, sodium tauro-24,25-dihdrofiisidate]
ranking order of increasing toxicity [1]: PBS, 5% HPβCD<1% STDHF<1% SDC and 1% BAC
LDH release (in words) ([1]; 1% w/v): slightly increased LDH release
body weight change (in words) ([1]; 1% w/v): decrease in body weight
mucus production (in words) ([1]; HPβCD 5% w/v, STDHF 1% w/v): increased mucus production
% MP, mucus production ([1]; day 1): 7.7%
ALP released into PBS ([1]; day 1): 21.77 U/L
LDH released into PBS ([1]; day 1): 18.22 U/L
Protein released into PBS ([1]; day 1): 15.68 μg/30μL
% MP, mucus production ([1]; day 2): 3.85%
ALP released into PBS ([1]; day 2): 9.39 U/L
LDH released into PBS ([1]; day 2): 14.44 U/L
Protein released into PBS ([1]; day 2): 2.84 μg/30μL
% MP, mucus production ([1]; day 3): 3.45%
ALP released into PBS ([1]; day 3): 8.66 U/L
LDH released into PBS ([1]; day 3): 24.04 U/L
Protein released into PBS ([1]; day 3): 2.79 μg/30μL
% MP, mucus production ([1]; day 4): 4.81%
ALP released into PBS ([1]; day 4): 15.14 U/L
LDH released into PBS ([1]; day 4): 20.53 U/L
Protein released into PBS ([1]; day 4): 4.55 μg/30μL
% MP, mucus production ([1]; day 5): 4.41%
ALP released into PBS ([1]; day 5): 4.81 U/L
LDH released into PBS ([1]; day 5): 25.65 U/L
Protein released into PBS ([1]; day 5): 4.18 μg/30μL
ranking order of increasing toxicity [2]: PBS, 5% HPβCD<1% STDHF<1% SDC and 1% BAC
LDH release (in words) ([2]; 1% w/v): slightly increased LDH release
body weight change (in words) ([2]; 1% w/v): decrease in body weight
mucus production (in words) ([2]; HPβCD 5% w/v, STDHF 1% w/v): increased mucus production
% MP, mucus production as % of the body weight at the start of the day before the treatment ([2]; day 1): 6.85%
ALP released into PBS ([2]; day 1): 3.81 U/L
LDH released into PBS ([2]; day 1): 1.65 U/L
Protein released into PBS ([2]; day 1): 14.48 μg/30μL
% MP, mucus production as % of the body weight at the start of the day before the treatment ([2]; day 2): 6.16%
ALP released into PBS ([2]; day 2): 6.49 U/L
LDH released into PBS ([2]; day 2): 4.29 U/L
Protein released into PBS ([2]; day 2): 11.67 μg/30μL
% MP, mucus production as % of the body weight at the start of the day before the treatment ([2]; day 3): 7.52%
ALP released into PBS ([2]; day 3): 5.09 U/L
LDH released into PBS ([2]; day 3): 6.02 U/L
Protein released into PBS ([2]; day 3): 6.27 μg/30μL
% MP, mucus production as % of the body weight at the start of the day before the treatment ([2]; day 4): 6.75%
ALP released into PBS ([2]; day 4): 3.28 U/L
LDH released into PBS ([2]; day 4): 18.23 U/L
Protein released into PBS ([2]; day 4): 10.4 μg/30μL
% MP, mucus production as % of the body weight at the start of the day before the treatment ([2]; day 5): 6.6%
ALP released into PBS ([2]; day 5): 3.62 U/L
LDH released into PBS ([2]; day 5): 10.63 U/L
Protein released into PBS ([2]; day 5): 10.36 μg/30μL
